Values quoted from earlier work as cited in patent publication US20100215746A1, “PREVENTION OF CISPLATIN INDUCED DEAFNESS” (THE REGENTS OF THE UNIVERSITY OF MICHIGAN, priority 2002, published 2010).

Columns and labels:
[1] = tested on: neuropathic and ototoxic effects of cisplatin; details: co-administration with cisplatin
[2] = tested on: hearing; details: human, in vivo

Structure (SMILES) | effectiveness in ameliorating neuropathic and ototoxic effects of cisplatin [1] | reported incidence of cisplatin-induced hearing loss [2]
NCCCNCCSP(=O)(O)O [amifostine] | does not appear to be effective | –
N.N.[Cl][Pt][Cl] [cisplatin] | – | 9-90%
